# Assay results from publication PMC8000592, “Discovery and Optimization of Selective Inhibitors of Meprin α (Part I)” (Pharmaceuticals, 2021).
# pIC50, pKi: −log10 of the molar value.
# Columns and labels:
# MMP2 = molecular target: T1, MMP2 (Homo sapiens, UniProt P08253); experiment: MMP assay (Mca-KPLGL-Dpa-AR-NH2 substrate); assay type: biochemical; details: triplicate, 10-point, 3:1 serial dilution, highest concentration 17.4 µM
# T1 construct: purchased R&D Systems 902-MP
# T1 sequence (P08253 110-660): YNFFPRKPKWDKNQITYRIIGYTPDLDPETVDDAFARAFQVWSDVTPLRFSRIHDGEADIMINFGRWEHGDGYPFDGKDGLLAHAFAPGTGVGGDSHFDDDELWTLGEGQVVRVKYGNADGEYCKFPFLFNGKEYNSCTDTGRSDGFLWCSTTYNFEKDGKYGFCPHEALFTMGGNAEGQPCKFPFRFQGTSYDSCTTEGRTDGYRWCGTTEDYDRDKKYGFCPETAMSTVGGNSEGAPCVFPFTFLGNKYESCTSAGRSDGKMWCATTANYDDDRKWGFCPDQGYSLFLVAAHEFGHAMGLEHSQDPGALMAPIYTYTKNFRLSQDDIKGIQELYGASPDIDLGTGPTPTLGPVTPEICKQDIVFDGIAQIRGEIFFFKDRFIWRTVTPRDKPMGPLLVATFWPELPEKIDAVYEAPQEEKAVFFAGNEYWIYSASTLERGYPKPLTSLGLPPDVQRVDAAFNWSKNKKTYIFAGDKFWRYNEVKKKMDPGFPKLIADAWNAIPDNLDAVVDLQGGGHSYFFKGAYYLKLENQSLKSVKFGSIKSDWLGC
# Procedure: (§1) We were able to procure 64 out of 87 selected compounds from commercial sources, which we tested in triplicate, 10-point, 3:1 serial dilution concentration response format starting at the highest concentration of 17.4 µM against both meprin α and meprin β. In addition to meprins, we also tested 64 hits against related metzincins (MMP-2, MMP-3, MMP-8, MMP-9, MMP-10, MMP-14, ADAM10, and ADAM17) to ascertain general nonpromiscuity against zinc-dependent proteases.
# (§2) All assays followed the same general protocol. A 5 µL portion of 2 × enzyme solution (5 nM) in assay buffer (50 mM Tricine, 50 mM NaCl, 10 mM CaCl2, 0.05% Brij-35, pH 7.5) was added to solid bottom black 384 plates (Nunc, cat# 264705). Next, test compounds and pharmacological controls were added to corresponding wells using a 384-pin tool device (V&P Scientific, San Diego, CA, USA). After 30 min incubation at RT, the reactions were started by addition of 5 µL of 2x solutions of substrate (R&D Systems cat#: ES010, Mca-KPLGL-Dpa-AR-NH2, 20 µM). Reactions were incubated at RT for 1 h, after which the fluorescence was measured using the Synergy H4 multimode microplate reader (Biotek Instruments) (λexcitation = 324 nm, λemission = 390 nm).
# MMP3 = MMP3 (Homo sapiens, UniProt P08254); experiment: MMP assay (Mca-KPLGL-Dpa-AR-NH2 substrate); assay type: biochemical; details: triplicate, 10-point, 3:1 serial dilution, highest concentration 17.4 µM
# Procedure: as §1, §2
# MMP9 = molecular target: T2, MMP9 (Homo sapiens, UniProt P14780); experiment: MMP assay (Mca-KPLGL-Dpa-AR-NH2 substrate); assay type: biochemical; details: triplicate, 10-point, 3:1 serial dilution, highest concentration 17.4 µM
# T2 construct: purchased R&D Systems 911-MP
# Procedure: as §1, §2
# MMP10 = molecular target: T3, MMP10 (Homo sapiens, UniProt P09238); experiment: MMP assay (Mca-KPLGL-Dpa-AR-NH2 substrate); assay type: biochemical; details: triplicate, 10-point, 3:1 serial dilution, highest concentration 17.4 µM
# T3 construct: purchased R&D Systems 910-MP
# Procedure: (§3) In addition to meprins, we also tested 64 hits against related metzincins (MMP-2, MMP-3, MMP-8, MMP-9, MMP-10, MMP-14, ADAM10, and ADAM17) to ascertain general nonpromiscuity against zinc-dependent proteases.
# (§4) All assays followed the same general protocol. […] After 30 min incubation at RT, the reactions were started by addition of 5 µL of 2x solutions of substrate (R&D Systems cat#: ES010, Mca-KPLGL-Dpa-AR-NH2, 20 µM). Reactions were incubated at RT for 1 h, after which the fluorescence was measured using the Synergy H4 multimode microplate reader (Biotek Instruments) (λexcitation = 324 nm, λemission = 390 nm).
# MMP14 = molecular target: T4, MMP14 (Homo sapiens, UniProt P50281); experiment: MMP assay (Mca-KPLGL-Dpa-AR-NH2 substrate); assay type: biochemical; details: triplicate, 10-point, 3:1 serial dilution, highest concentration 17.4 µM
# T4 construct: purchased R&D Systems 918-MP
# Procedure: as §3, §4
# MMP8 = molecular target: T5, MMP8 (Homo sapiens, UniProt P22894); experiment: MMP assay (Mca-KPLGL-Dpa-AR-NH2 substrate); assay type: biochemical; details: triplicate, 10-point, 3:1 serial dilution, highest concentration 17.4 µM
# T5 construct: purchased R&D Systems 908-MP
# Procedure: as §3, §4
# ADAM17 = molecular target: T6, ADAM17 (Homo sapiens, UniProt P78536); experiment: ADAM17 assay (Mca-KPLGL-Dpa-AR-NH2 substrate); assay type: biochemical; details: triplicate, 10-point, 3:1 serial dilution, highest concentration 17.4 µM
# T6 construct: purchased R&D Systems 930-ADB
# Procedure: as §1
# Both assays followed the same general protocol. A 2.5 µL portion of 2 × enzyme solution (20 nM) in assay buffer (10 mM HEPES, 0.001% Brij-35, pH 7.5) was added to solid bottom black 1536 plates (Greiner, cat# 789075). Next, test compounds and pharmacological controls were added to corresponding wells using a 1536 pin tool device (V&P Scientific, San Diego, CA, USA). After 30 min incubation at RT, the reactions were started by addition of 2.5 µL of 2x solutions of substrate (R&D Systems cat#: ES010, Mca-KPLGL-Dpa-AR-NH2, 20 µM). Reactions were incubated at RT for 2 h, after which the fluorescence was measured using a PerkinElmer Viewlux multimode microplate imager (λexcitation = 324 nm, λemission = 390 nm). Final concentration of test compounds in assays was 7.0 µM.
# meprin β = details: cited from earlier work
# MMP and ADAM = details: cited from earlier work
# [1] = test system: BJ skin fibroblasts and primary melanocytes; experiment: Cell toxicity studies (CellTiter-Glo, 72 h); assay type: cell-based; details: skin fibroblast and melanocyte viability
# Procedure: We also tested representative compounds from each scaffold for effects on skin fibroblast and melanocyte viability to ascertain cytotoxicity towards various skin cell types.
# Test compounds were solubilized in 100% DMSO and added to polypropylene 384 well plates (Greiner cat# 781280). The 1250 of BJ skin fibroblasts (ATCC CRL-2522) and primary melanocytes (ATCC PCS-200-013) were plated in 384 well plates in 8 µL of serum-free media […]. Test compounds and pharmacological assay control (lapatinib) were prepared as 10-point, 1:3 serial dilutions starting at 10 mM, then added to the cells using the pin tool mounted on the Integra 384. Plates were incubated for 72 h at 37 °C, 5% CO2 and 95% relative humidity. […] Luminescence was recorded using a Biotek Synergy H1 multimode microplate reader. Viability was expressed as a percentage relative to wells containing media only (0%) and wells containing cells treated with DMSO only (100%). Three parameters were calculated on a per plate basis: (a) the signal-to-background ratio (S/B); (b) the coefficient for variation (CV; CV = (standard deviation/mean) × 100)) for all compound test wells; and (c) the Z’-factor. IC50 values were calculated by fitting normalized data to sigmoidal log versus response equation utilizing nonlinear regression analysis from GraphPad Prizm 8.
# T3 sequence (P09238 99-476): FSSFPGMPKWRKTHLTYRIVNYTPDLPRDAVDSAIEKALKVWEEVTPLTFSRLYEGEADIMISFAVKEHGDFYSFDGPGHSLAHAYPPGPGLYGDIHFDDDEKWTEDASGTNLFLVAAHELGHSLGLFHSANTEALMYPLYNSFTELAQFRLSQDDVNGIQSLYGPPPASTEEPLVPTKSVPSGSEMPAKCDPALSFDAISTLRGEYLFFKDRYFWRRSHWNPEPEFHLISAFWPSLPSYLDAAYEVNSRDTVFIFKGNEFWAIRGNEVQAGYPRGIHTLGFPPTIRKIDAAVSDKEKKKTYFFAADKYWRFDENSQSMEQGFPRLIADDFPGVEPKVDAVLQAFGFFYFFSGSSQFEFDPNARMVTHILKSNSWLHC
# T6 sequence (P78536 215-824): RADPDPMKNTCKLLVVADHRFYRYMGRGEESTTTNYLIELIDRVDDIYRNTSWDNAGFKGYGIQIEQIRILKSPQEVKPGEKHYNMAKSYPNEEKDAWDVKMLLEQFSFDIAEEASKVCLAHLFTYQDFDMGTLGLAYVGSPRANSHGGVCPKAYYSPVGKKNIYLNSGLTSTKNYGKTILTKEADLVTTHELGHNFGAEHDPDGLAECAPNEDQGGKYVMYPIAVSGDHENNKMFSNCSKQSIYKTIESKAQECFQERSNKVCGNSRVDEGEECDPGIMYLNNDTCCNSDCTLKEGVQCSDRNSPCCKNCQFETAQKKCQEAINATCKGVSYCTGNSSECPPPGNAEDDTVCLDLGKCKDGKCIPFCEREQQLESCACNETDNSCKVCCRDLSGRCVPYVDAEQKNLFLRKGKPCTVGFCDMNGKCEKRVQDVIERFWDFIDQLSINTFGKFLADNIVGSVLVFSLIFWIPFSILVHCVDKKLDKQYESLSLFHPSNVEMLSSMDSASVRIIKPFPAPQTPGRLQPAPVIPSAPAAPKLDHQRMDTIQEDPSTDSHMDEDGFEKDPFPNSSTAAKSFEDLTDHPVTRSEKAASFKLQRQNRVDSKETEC
# T2 sequence (P14780 94-707): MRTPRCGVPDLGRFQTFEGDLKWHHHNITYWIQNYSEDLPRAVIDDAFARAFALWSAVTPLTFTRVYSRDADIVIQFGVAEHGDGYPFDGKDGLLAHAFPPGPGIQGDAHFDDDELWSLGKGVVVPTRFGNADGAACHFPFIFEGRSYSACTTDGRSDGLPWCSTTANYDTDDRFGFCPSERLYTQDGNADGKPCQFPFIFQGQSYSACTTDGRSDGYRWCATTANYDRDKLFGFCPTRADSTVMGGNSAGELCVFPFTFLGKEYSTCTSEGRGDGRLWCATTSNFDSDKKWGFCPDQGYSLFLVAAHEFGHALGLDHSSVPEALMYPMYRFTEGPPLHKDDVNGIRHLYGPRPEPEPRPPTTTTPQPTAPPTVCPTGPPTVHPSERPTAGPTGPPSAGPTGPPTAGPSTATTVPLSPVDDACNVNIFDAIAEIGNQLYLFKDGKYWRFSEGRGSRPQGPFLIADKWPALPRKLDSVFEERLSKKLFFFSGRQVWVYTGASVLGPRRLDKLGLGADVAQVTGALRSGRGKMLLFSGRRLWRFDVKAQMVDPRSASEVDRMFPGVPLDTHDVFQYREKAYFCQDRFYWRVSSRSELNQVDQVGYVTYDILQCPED
# Chain of MMP3 (P08254 100-477, species assumed): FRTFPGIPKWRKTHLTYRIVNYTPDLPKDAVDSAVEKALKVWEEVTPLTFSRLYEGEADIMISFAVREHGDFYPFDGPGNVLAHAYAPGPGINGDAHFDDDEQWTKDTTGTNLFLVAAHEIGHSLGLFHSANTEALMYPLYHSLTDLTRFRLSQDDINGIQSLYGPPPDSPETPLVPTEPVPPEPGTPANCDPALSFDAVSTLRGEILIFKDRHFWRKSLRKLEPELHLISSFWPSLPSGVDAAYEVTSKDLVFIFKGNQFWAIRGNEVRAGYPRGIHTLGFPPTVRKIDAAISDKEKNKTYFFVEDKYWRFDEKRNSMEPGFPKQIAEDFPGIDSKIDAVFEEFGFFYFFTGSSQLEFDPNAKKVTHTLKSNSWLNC
# T5 sequence (P22894 101-467): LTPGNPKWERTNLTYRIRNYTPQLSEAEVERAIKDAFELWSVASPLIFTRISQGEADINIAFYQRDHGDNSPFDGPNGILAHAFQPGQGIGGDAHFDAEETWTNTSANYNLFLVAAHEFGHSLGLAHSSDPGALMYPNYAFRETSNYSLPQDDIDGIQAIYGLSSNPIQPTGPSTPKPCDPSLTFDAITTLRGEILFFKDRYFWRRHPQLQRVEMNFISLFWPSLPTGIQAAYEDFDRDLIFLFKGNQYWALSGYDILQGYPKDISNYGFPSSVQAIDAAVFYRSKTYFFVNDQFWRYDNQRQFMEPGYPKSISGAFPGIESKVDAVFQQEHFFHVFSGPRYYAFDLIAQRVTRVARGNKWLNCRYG
smiles,measurement,setting,value
O=C(CCN(Cc1cccs1)S(=O)(=O)c1ccc([N+](=O)[O-])cc1)NO [Compound 162799],pIC50,MMP2,< 4.77
same,pIC50,MMP3,< 4.77
same,pIC50,MMP9,< 4.77
same,pIC50,MMP10,< 4.77
same,pIC50,MMP14,< 4.77
same,pIC50,MMP8,< 4.77
same,pIC50,ADAM17,< 4.77
O=C(COc1ccc(Cl)cc1Cl)NO [Compound 1596857],pIC50,MMP2,< 4.77
same,pIC50,MMP3,< 4.77
same,pIC50,MMP9,< 4.77
same,pIC50,MMP10,< 4.77
same,pIC50,MMP14,< 4.77
same,pIC50,MMP8,< 4.77
same,pIC50,ADAM17,< 4.77
CSc1nnc2c(n1)OC(c1ccc([N+](=O)[O-])o1)Nc1ccccc1-2 (stereo not shown) [SR412882],pIC50,MMP2,< 4.77
same,pIC50,MMP3,4.82
same,pIC50,MMP9,< 4.77
same,pIC50,MMP10,5.01
same,pIC50,MMP14,4.98
same,pIC50,MMP8,< 4.77
same,pIC50,ADAM17,4.77
O=C(CSc1nnc(NC(=O)c2ccccc2)s1)NO [Compound 19847],pIC50,MMP2,5.54
same,pIC50,MMP3,< 4.77
same,pIC50,MMP9,< 4.77
same,pIC50,MMP10,< 4.77
same,pIC50,MMP14,< 4.77
same,pIC50,MMP8,< 4.77
same,pIC50,ADAM17,< 4.77
O=C(Nc1cc(C(=O)Nc2ccc(S(=O)(=O)O)cc2S(=O)(=O)O)cc(C(=O)Nc2ccc(S(=O)(=O)O)cc2S(=O)(=O)O)c1)Nc1cc(C(=O)Nc2ccc(S(=O)(=O)O)cc2S(=O)(=O)O)cc(C(=O)Nc2ccc(S(=O)(=O)O)cc2S(=O)(=O)O)c1 [NFF449],pKi,meprin β,7.66
same,selectivity against adamalysins and matrixins,MMP and ADAM,good selectivity
O=C(CCN(Cc1ccccc1)S(=O)(=O)c1ccc(F)cc1)NO [Compound 162808],pIC50,MMP2,4.77
same,pIC50,MMP3,< 4.77
same,pIC50,MMP9,< 4.77
same,pIC50,MMP10,< 4.77
same,pIC50,MMP14,< 4.77
same,pIC50,MMP8,< 4.77
same,pIC50,ADAM17,< 4.77
same,cytotoxicity (effect on cell viability),[1],no cytotoxicity
O=[N+]([O-])c1ccc(CN2CCC3(CCc4ccccc43)CC2)o1 [SR207820],pIC50,MMP2,< 4.77
same,pIC50,MMP3,4.77
same,pIC50,MMP9,< 4.77
same,pIC50,MMP10,< 4.77
same,pIC50,MMP14,< 4.77
same,pIC50,MMP8,< 4.77
same,pIC50,ADAM17,< 4.77
O=C(c1ccc(C(=O)O)c([N+](=O)[O-])c1)c1ccc(C(=O)O)c([N+](=O)[O-])c1 [SR355996],pIC50,MMP2,< 4.77
same,pIC50,MMP3,< 4.77
same,pIC50,MMP9,4.77
same,pIC50,MMP10,< 4.77
same,pIC50,MMP14,< 4.77
same,pIC50,MMP8,< 4.77
same,pIC50,ADAM17,< 4.77
COc1ccc(-n2c(CSc3ncccn3)nnc2SCC(=O)NO)cc1 [Compound 19855],pIC50,MMP2,< 4.77
same,pIC50,MMP3,< 4.77
same,pIC50,MMP9,< 4.77
same,pIC50,MMP10,< 4.77
same,pIC50,MMP14,< 4.77
same,pIC50,MMP8,< 4.77
same,pIC50,ADAM17,< 4.77
COc1cc(OC)cc(C(=O)CNc2nnc(SCC(=O)NO)s2)c1 [Compound 19849],pIC50,MMP2,< 4.77
same,pIC50,MMP3,< 4.77
same,pIC50,MMP9,< 4.77
same,pIC50,MMP10,< 4.77
same,pIC50,MMP14,< 4.77
same,pIC50,MMP8,< 4.77
same,pIC50,ADAM17,5.10
O=C(CSc1nnc(NC(=O)COc2ccccc2)s1)NO [Compound 19848],pIC50,MMP2,< 4.77
same,pIC50,MMP3,< 4.77
same,pIC50,MMP9,< 4.77
same,pIC50,MMP10,< 4.77
same,pIC50,MMP14,< 4.77
same,pIC50,MMP8,< 4.77
same,pIC50,ADAM17,< 4.77
